This is an account of results in patent US11053253B2, “Macrocyclic compounds for treatment of medical disorders” (Achillion Pharmaceuticals, Inc., priority 2017, dated 2021).

The target in this experiment is Human Factor D (Homo sapiens (Human), UniProt P00746). Nature of the experiment: Human Factor D Assay. It counts as biochemical. The settings on record: Human Factor D 80 nM, substrate Z-L-Lys-SBzl, DTNB, A405; read-out: IC50 (Stars). The essentials: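 Serum-purified enzyme (80 nM final) was preincubated with compound 5 min at room temperature in 50 mM Tris, 1M NaCl, pH 7.5. Z-L-Lys-SBzl and DTNB ([…] each, final) were added and A405 followed every 30 s for 30 min; IC50 from nonlinear regression of reaction rates.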
Sequence of Human Factor D (P00746 26-253): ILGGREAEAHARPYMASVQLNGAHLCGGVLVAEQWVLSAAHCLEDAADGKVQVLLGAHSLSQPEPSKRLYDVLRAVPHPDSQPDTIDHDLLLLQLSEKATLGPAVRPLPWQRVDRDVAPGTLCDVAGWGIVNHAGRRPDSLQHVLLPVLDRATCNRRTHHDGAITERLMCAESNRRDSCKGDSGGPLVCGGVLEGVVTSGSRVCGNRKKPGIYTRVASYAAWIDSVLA

Turning to `CC(=O)N[C@H]1CC=CCOCc2ccc(Br)nc2NC(=O)[C@@H]2C[C@]3(C[C@H]3N2C(=O)Cn2nc(C(C)=O)c3cc(-c4cnc(C)nc4)ccc32)CN(C)C1=O` [Compound T-103], the IC50 is < 1000 nM.

Turning to `CC(=O)c1nn(CC(=O)N2[C@H]3C[C@]4(C[C@@H]24)Cn2ccc(n2)C=CCCC(F)(F)c2ccc(Br)nc2NC3=O)c2ccc(-c3cnc(C)nc3)cc12` [Compound T-104], the IC50 is < 1000 nM.

Regarding `CC(=O)c1nn(CC(=O)N2[C@H]3C[C@]4(C[C@@H]24)Cn2ccc(n2)C=CCCC(F)(F)c2ccc(Br)nc2NC3=O)c2cnc(-c3cnc(C)nc3)cc12` [Compound T-105], the IC50 is < 1000 nM.

On to `CC(=O)c1nn(CC(=O)N2C[C@@]3(F)COCCCCCCCc4ccc(Br)nc4NC(=O)[C@@H]2C3)c2ccc(-c3cnc(C)nc3)cc12` [Compound T-106], for which the IC50 was < 1000 nM.

Regarding `CC(=O)c1nn(CC(=O)N2C[C@@]3(F)COCCCCCCCc4ccc(Br)nc4NC(=O)[C@@H]2C3)c2c(C)nc(-c3cnc(C)nc3)cc12` [Compound T-107], the IC50 was < 1000 nM.

Turning to `CC(=O)c1nn2c3c(cc(-c4cnc(C)nc4)cc13)CCCCCCCOC[C@@]13C[C@@H](C(=O)Nc4nc(Br)ccc4C)N(C(=O)C2)[C@@H]1C3` [Compound T-108], the IC50 was < 1000 nM.

Take `CC(=O)c1nn2c3c(cc(-c4cnc(C)nc4)cc13)CCCCCCCCCC[C@@]13C[C@@H](C(=O)Nc4nc(Br)ccc4C)N(C(=O)C2)[C@@H]1C3` [Compound T-109]: the IC50 is < 1000 nM.

For the molecule `CC(=O)c1nn(CC(=O)N2[C@H]3C[C@]4(C[C@@H]24)CN(C)CCCCCCCc2ccc(Br)nc2NC3=O)c2ccc(-c3cnc(C)nc3)cc12` [Compound T-110], the IC50 was < 1000 nM.

As for `CC(=O)c1nn2c3c(cc(-c4cnc(C)nc4)cc13)CCCCCCCCC[C@@]13C[C@@H](C(=O)Nc4nc(Br)ccc4C)N(C(=O)C2)[C@@H]1C3` [Compound T-111], the IC50 was < 1000 nM.

Take `CC(=O)c1nn(CC(=O)N2[C@H]3C[C@@]4(CNC(=O)C(C)(C)C=CCOCc5ccc(Br)nc5NC3=O)C[C@@H]24)c2cnc(-c3cnc(C)nc3)cc12` [Compound T-112]: the IC50 was < 1000 nM.

Take `CC(=O)c1nn(CC(=O)N2[C@H]3C[C@@]4(Cc5nc(no5)C=CCOCc5ccc(Br)nc5NC3=O)C[C@@H]24)c2c(C)cc(-c3cnc(C)nc3)cc12` [Compound T-113]: the IC50 is < 1000 nM.

For `CC(=O)c1nn(CC(=O)N2[C@H]3C[C@@]4(CNC(=O)C(C)(C)CC=CCOCc5ccc(Br)nc5NC3=O)C[C@@H]24)c2cnc(-c3cnc(C)nc3)cc12` [Compound T-114], the IC50 was < 1000 nM.

For `CC(=O)c1nn(CC(=O)N2[C@H]3C[C@@]4(CNC(=O)C(C)(C)CC=CCOCc5ccc(Br)nc5NC3=O)C[C@@H]24)c2ccc(-c3cnc(C)nc3)cc12` [Compound T-115], the IC50 was < 1000 nM.

As to `CC(=O)c1nn(CC(=O)N2[C@H]3C[C@@]4(CNC(=O)C(C)(C)CCCOCc5ccc(Br)nc5NC3=O)C[C@@H]24)c2cnc(-c3cnc(C)nc3)cc12` [Compound T-116], the IC50 is < 1000 nM.

For the molecule `CC(=O)c1nn(CC(=O)N2[C@H]3C[C@@]4(CNC(=O)C(C)(C)CCCCOCc5ccc(Br)nc5NC3=O)C[C@@H]24)c2ccc(-c3cnc(C)nc3)cc12` [Compound T-117], the IC50 is < 1000 nM.

On to `CC(=O)c1nn(CC(=O)N2[C@H]3C[C@@]4(CNC(=O)C(C)(C)CCCCOCc5ccc(Br)nc5NC3=O)C[C@@H]24)c2cnc(-c3cnc(C)nc3)cc12` [Compound T-118], for which the IC50 was < 1000 nM.

In the case of `CC(=O)c1nn(CC(=O)N2[C@H]3C[C@@]4(CNC(=O)C(F)(F)CCCCOCc5ccc(Br)nc5NC3=O)C[C@@H]24)c2cnc(-c3cnc(C)nc3)cc12` [Compound T-119], the IC50 is < 1000 nM.

Regarding `CC(=O)c1nn(CC(=O)N2[C@H]3C[C@@]4(CNC(=O)C(F)(F)CCCCOCc5ccc(Br)nc5NC3=O)C[C@@H]24)c2ccc(-c3cnc(C)nc3)cc12` [Compound T-120], the IC50 was < 1000 nM.

For the molecule `CC(=O)c1nn2c3c(cc(-c4cnc(C)nc4)cc13)C(O)C(O)CCCCCN(C)C[C@@]13C[C@@H](C(=O)Nc4nc(Br)ccc4C)N(C(=O)C2)[C@@H]1C3` (stereo partly drawn) [Compound T-121], the IC50 was < 1000 nM.

As for `CC(=O)c1nn2c3c(cc(-c4cnc(C)nc4)cc13)CCCCCCCN(C)C[C@@]13C[C@@H](C(=O)Nc4nc(Br)ccc4C)N(C(=O)C2)[C@@H]1C3` [Compound T-122], the IC50 lay in the range of 1000 to 10000 nM.

`CC(=O)c1nn(CC(=O)N2[C@H]3C[C@]4(C[C@@H]24)CN2CCN(CCCOCc4ccc(Br)nc4NC3=O)CC2)c2ccc(-c3cnc(C)nc3)cc12` [Compound T-123]: the IC50 lay within 1000 to 10000 nM.

For the molecule `CC(=O)c1nn2c3c(cc(-c4cnc(C)nc4)cc13)CCCCCC(=O)N(C)C[C@@]13C[C@@H](C(=O)Nc4nc(C(F)(F)F)ccc4C)N(C(=O)C2)[C@@H]1C3` [Compound T-125], the IC50 was < 1000 nM.

For `CC(=O)c1nn2c3c(nc(-c4cnc(C)nc4)cc13)C=CCCCC(=O)NC[C@@]13C[C@@H](C(=O)Nc4nc(C(F)(F)F)ccc4C)N(C(=O)C2)[C@@H]1C3` [Compound T-126], the IC50 was < 1000 nM.

In the case of `CC(=O)c1nn2c3c(cc(-c4cnc(C)nc4)cc13)CC=CCCCC(=O)NC[C@]1(F)C[C@@H](C(=O)Nc3nc(C(F)(F)F)ccc3C)N(C1)C(=O)C2` [Compound T-127], the IC50 is > 10000 nM.

In the case of `CC(=O)c1nn2c3c(cc(-c4cnc(C)nc4)cc13)CCCCCCC(=O)NC[C@]1(F)C[C@@H](C(=O)Nc3nc(C(F)(F)F)ccc3C)N(C1)C(=O)C2` [Compound T-128], the IC50 is < 1000 nM.

As to `CC(=O)c1nn2c3c(cc(-c4cnc(C)nc4)cc13)CCCCCC(=O)NC[C@]1(F)C[C@@H](C(=O)Nc3nc(C(F)(F)F)ccc3C)N(C1)C(=O)C2` [Compound T-129], the IC50 was in the range of 1000 to 10000 nM.

On to `CC(=O)c1nn(CC(=O)N2[C@H]3C[C@@]4(CNC(=O)C(C)(C)CCCOCc5ccc(Br)nc5NC3=O)C[C@@H]24)c2ccc(-c3cnc(C)nc3)cc12` [Compound T-130], for which the IC50 was < 1000 nM.

In the case of `CC(=O)c1nn(CC(=O)N2[C@H]3C[C@@]4(CNC(=O)C(C)(C)C=CCOCc5ccc(Br)nc5NC3=O)C[C@@H]24)c2ccc(-c3cnc(C)nc3)cc12` [Compound T-131], the IC50 is < 1000 nM.

For `CC(=O)c1nn2c3c(nc(-c4cnc(C)nc4)cc13)CCCCCCC(=O)NC[C@@]13C[C@@H](C(=O)Nc4nc(C(F)(F)F)ccc4C)N(C(=O)C2)[C@@H]1C3` [Compound T-132], the IC50 is < 1000 nM.

`Cc1ncc(-c2cc3c4c(c2)c(C#N)nn4CC(=O)N2[C@H](C(=O)Nc4nc(C(F)(F)F)ccc4C)C[C@@]4(CNC(=O)CCCC=CC3)C[C@@H]24)cn1` [Compound T-133]: the IC50 was < 1000 nM.

Take `Cc1ncc(-c2cc3c4c(c2)c(C(N)=O)nn4CC(=O)N2[C@H](C(=O)Nc4nc(C(F)(F)F)ccc4C)C[C@@]4(CNC(=O)CCCC=CC3)C[C@@H]24)cn1` [Compound T-134]: the IC50 is < 1000 nM.

`CC(=O)c1nn2c3c(cc(-c4cnc(C)nc4)cc13)CCCCCCCc1cccc(c1)COC[C@@]13C[C@@H](C(=O)Nc4nc(Br)ccc4C)N(C(=O)C2)[C@@H]1C3` [Compound T-136]: the IC50 was < 1000 nM.

As to `CC(=O)c1nn2c3c(cc(-c4cnc(C)nc4)cc13)CCCCC=CCc1cccc(n1)OC[C@@]13C[C@@H](C(=O)Nc4nc(Br)ccc4C)N(C(=O)C2)[C@@H]1C3` [Compound T-137], the IC50 was < 1000 nM.

On to `CC(=O)c1nn2c3c(cc(-c4cnc(C)nc4)cc13)COCC=CC(F)(F)C(=O)NC[C@@]13C[C@@H](C(=O)Nc4nc(C(F)(F)F)ccc4C)N(C(=O)C2)[C@@H]1C3` [Compound T-138], for which the concentration for half-maximal inhibition (IC50) was < 1000 nM.

With `CC(=O)c1nn2c3c(cc(-c4cnc(C)nc4)cc13)CCCCCCCc1cccc(n1)OC[C@@]13C[C@@H](C(=O)Nc4nc(Br)ccc4C)N(C(=O)C2)[C@@H]1C3` [Compound T-139], the IC50 is < 1000 nM.

As for `CC(=O)c1nn2c3c(cc(-c4cnc(C)nc4)cc13)CCCCCCc1cccc(n1)OC[C@@]13C[C@@H](C(=O)Nc4nc(Br)ccc4C)N(C(=O)C2)[C@@H]1C3` [Compound T-140], the IC50 is < 1000 nM.

Regarding `CC(=O)c1nn2c3c(cc(-c4cnc(C)nc4)cc13)CCCCCc1cccc(n1)OC[C@@]13C[C@@H](C(=O)Nc4nc(Br)ccc4C)N(C(=O)C2)[C@@H]1C3` [Compound T-141], the IC50 is < 1000 nM.

Take `Cc1ncc(-c2cc3c4c(c2)c(C(N)=O)nn4CC(=O)N2[C@H](C(=O)Nc4nc(Br)ccc4C)C[C@@]4(CNC(=O)CCCC=CC3)C[C@@H]24)cn1` [Compound T-152]: the IC50 was < 1000 nM.

`Cc1ncc(-c2cc3c4c(c2)c(C(N)=O)nn4CC(=O)N2[C@H](C(=O)Nc4nc(Br)ccc4C)C[C@@]4(CNC(=O)CCCCCC3)C[C@@H]24)cn1` [Compound T-153]: the IC50 is < 1000 nM.

As to `Cc1ncc(-c2cc3c4c(c2)c(C#N)nn4CC(=O)N2[C@H](C(=O)Nc4nc(C(F)(F)F)ccc4C)C[C@@]4(COCC=CCCC3)C[C@@H]24)cn1` [Compound T-154], the IC50 is < 1000 nM.

In the case of `Cc1ncc(-c2cc3c(C#N)nn4c3c(n2)CCCCCCOC[C@@]23C[C@@H](C(=O)Nc5nc(C(F)(F)F)ccc5C)N(C(=O)C4)[C@@H]2C3)cn1` [Compound T-155], the IC50 was < 1000 nM.

In the case of `Cc1ncc(-c2cc3c(C(N)=O)nn4c3c(n2)CCCCCCOC[C@@]23C[C@@H](C(=O)Nc5nc(C(F)(F)F)ccc5C)N(C(=O)C4)[C@@H]2C3)cn1` [Compound T-156], the IC50 is < 1000 nM.

For `CC(=O)c1nn(CC(=O)N2[C@H]3C[C@@]4(CNC(=O)C(F)(F)CCCOCc5ccc(Br)nc5NC3=O)C[C@@H]24)c2ccc(-c3cnc(C)nc3)cc12` [Compound T-157], the IC50 was < 1000 nM.

In the case of `CC(=O)c1nn(CC(=O)N2C[C@@]3(F)COCCCCOCc4ccc(Br)nc4NC(=O)[C@@H]2C3)c2cnc(-c3cnc(C)nc3)cc12` [Compound T-161], the IC50 is < 1000 nM.

`CC(=O)c1nn(CC(=O)N2C[C@@]3(F)COCCCCOCc4ccc(Br)nc4NC(=O)[C@@H]2C3)c2ccc(-c3cnc(C)nc3)cc12` [Compound T-162]: the IC50 is < 1000 nM.
